For four compounds, mortality results are on record in patent publication US20240292840A1, “TRIAZOLE COMPOUNDS FOR THE CONTROL OF INVERTEBRATE PESTS” (priority 2021, published 2024).

The structures appear in SMILES notation.

Test [1] deals with Boll Weevil (Anthonomus grandis). The test is described as follows: B.5 Boll weevil egg/larval test on insect diet in microtiter plates. The format is in vivo. To be noted: 120 h, egg and larval mortality, 5 days, read-out: mortality in comparison with untreated controls. Here is the method:
B.5 Boll Weevil (Anthonomus grandis)
For evaluating control of boll weevil (Anthonomus grandis), the test unit consisted of 96-well-microtiter plates containing an insect diet and 5-10 A. grandis eggs.
The compounds were formulated using a solution containing 75% v/v water and 25% v/v DMSO. Different concentrations of formulated compounds were sprayed onto the insect diet at 5 μl, using a custom-built micro atomizer, at two replications.
After application, microtiter plates were incubated at about 25±1° C. and about 75±5% relative humidity for 5 days. Egg and larval mortality was then visually assessed.

The test system of test [2] is Yellow Fever Mosquito (Aedes aegypti). The test is described as follows: whole plant or invertebrate. The format is in vivo. To be noted: 48 h, larval mortality, 2 days, read-out: mortality in comparison with untreated controls. As to the method:
B.8 Yellow Fever Mosquito (Aedes aegypti)
For evaluating control of yellow fever mosquito (Aedes aegypti) the test unit consisted of 96-well-microtiter plates containing 200 μl of tap water per well and 5-15 freshly hatched A. aegypti larvae.
The active compounds were formulated using a solution containing 75% (v/v) water and 25% (v/v) DMSO. Different concentrations of formulated compounds or mixtures were sprayed onto the insect diet at 2.5 μl, using a custom-built micro atomizer, at two replications.
After application, microtiter plates were incubated at 28±1° C., 80±5% RH for 2 days. Larval mortality was then visually assessed.

Consider `C/C(=N\O)n1ncnc1C(C)NC(=O)c1cc(C(F)(F)F)cc(C(F)(F)F)c1` (centres unmarked) [I.1-76, N-[1-[2-[(E)-N-hydroxy-C-methyl-carbonimidoyl]-1,2,4-triazol-3-yl]ethyl]-3,5-bis(trifluoromethyl)benzamide], for which the mortality at 2500 ppm in test [1] is at least 75%.

With `C/C(=N/O)n1ncnc1C(C)NC(=O)c1cc(C(F)(F)F)cc(C(F)(F)F)c1` (centres unmarked) [I.1-1, N-[1-[2-[(Z)—N-hydroxy-C-methyl-carbonimidoyl]-1,2,4-triazol-3-yl]ethyl]-3,5-bis(trifluoromethyl)benzamide], the mortality at 2500 ppm in test [1] was at least 75%.

`CCON=C(C)n1ncnc1C(C)NC(=O)c1cc(Cl)cc(C(F)(F)F)c1` (centres unmarked) [I.1-12, 3-chloro-N-[1-[2-(N-ethoxy-C-methyl-carbonimidoyl)-1,2,4-triazol-3-yl]ethyl]-5-(trifluoromethyl)benzamide]: the mortality at 2500 ppm in test [1] and in test [2] was at least 75% in each case.

For the compound `CC(=NOc1ccccc1)n1ncnc1C(C)NC(=O)c1cc(Cl)cc(C(F)(F)F)c1` (centres unmarked) [I.1-13, 3-chloro-N-[1-[2-[C-methyl-N-phenoxy-carbonimidoyl]-1,2,4-triazol-3-yl]ethyl]-5-(trifluoromethyl)benzamide], the mortality at 2500 ppm in test [2] is at least 75%.

As a reminder, the mortality is the share of the test organisms that died.
